Reference: patent US11737999B2, “Amino acid compositions and methods for the treatment of post-acute sequelae of COVID-19” (AXCELLA HEALTH INC., priority 2021, dated 2023)

Tests used:
Procollagen Iα1 = Procollagen Iα1 secretion (ELISA) in primary human hepatic stellate cells stimulated with TGFβ1; format: cell-based; details: for Procollagen lα1 Secretion (Fold Change of 1X), Mean: first donor; for Procollagen lα1 Secretion (Fold Change of 1X), Mean / Procollagen Iα1 Secretion, Mean: single amino acid
IL-6 [1] = experiment: LPS-induced IL-6 secretion in primary human monocyte-derived macrophages; details: LPS, baseline subtracted values
MCP-1 = MCP-1 chemokine secretion in primary human hepatic stellate cells stimulated with TNFα; format: cell-based
Col1a1 = Col1a1 gene expression (RT-qPCR) in primary human hepatic stellate cells stimulated with TGFβ1; format: cell-based; details: for Col1a1 Fold Expression Relative to Control, Mean: single amino acid
IL-6 [2] = experiment: IL-6 cytokine secretion in primary human hepatic stellate cells stimulated with TNFα; format: cell-based; details: for Fold Change IL-6 Secretion Normalized Per Cell: Valine 234 μM (plasma level, reference)
MCP1/CCL2 = MCP1/CCL2 secretion by ELISA in primary human hepatocytes with FFA + TNFα; format: cell-based
TNF-α = experiment: LPS-induced TNF-α secretion in primary human monocyte-derived macrophages; details: 0.15 ng/mL LPS
[3] = hepatic stellate cells, three donors
[4] = Donor 2, Conc. 234 μM (baseline)
[5] = hepatic stellate cells, two donors

For `CC(C)[C@H](N)C(=O)O` [Valine, L-Valine], the “Procollagen lα1 Secretion (Fold Change of 1X), Mean” value (Procollagen Iα1; 4684 μM) was 1.1203 fold, the “Procollagen lα1 Secretion (Fold Change of 1X), Mean” value (Procollagen Iα1; 11710 μM) was 1.2069 fold and the “Procollagen lα1 Secretion (Fold Change of 1X), Mean” value (Procollagen Iα1; 23420 μM) was 1.2139 fold. The “procollagen Iα1 secretion (summary in words)” value (Procollagen Iα1; [3]) was “significantly increased procollagen Iα1 secretion in only one of two donors”, the “Procollagen Iα1 Secretion, Mean” value (Procollagen Iα1; second donor, Conc. 234 μM (baseline)) was 1.0000 Fold Change of 1× and the “Procollagen Iα1 Secretion, Mean” value (Procollagen Iα1; second donor, Conc. 4684 μM) was 1.2865 Fold Change of 1×. The “Procollagen Iα1 Secretion, Mean” value (Procollagen Iα1; second donor, Conc. 11710 μM) was 1.2877 Fold Change of 1×, the “Procollagen Iα1 Secretion, Mean” value (Procollagen Iα1; second donor, Conc. 23420 μM) was 1.3068 Fold Change of 1× and the “Procollagen Iα1 Secretion, Mean” value (Procollagen Iα1; third donor, Conc. 234 μM (baseline)) was 1.0000 Fold Change of 1×. The “Procollagen Iα1 Secretion, Mean” value (Procollagen Iα1; third donor, Conc. 4684 μM) was 1.0428 Fold Change of 1×, the “Procollagen Iα1 Secretion, Mean” value (Procollagen Iα1; third donor, Conc. 11710 μM) was 1.0498 Fold Change of 1× and the “Procollagen Iα1 Secretion, Mean” value (Procollagen Iα1; third donor, Conc. 23420 μM) was 1.1139 Fold Change of 1×. For the same compound, the “IL-6 Measurements, Mean” value (IL-6 [1]; Donor 1, Conc. 234 μM (baseline)) was 0, the “IL-6 Measurements, Mean” value (IL-6 [1]; [4]) was −4.7E−15 and the “IL-6 Measurements, Mean” value (IL-6 [1]; Donor 2, Conc. 4684 μM) was −4.528. The “IL-6 Measurements, Mean” value (IL-6 [1]; Donor 2, Conc. 11710 μM) was −1.196, the “IL-6 Measurements, Mean” value (IL-6 [1]; Donor 2, Conc. 23420 μM) was 4.396 and the “Fold Change MCP1 Secretion Normalized Per Cell, Mean” value (MCP-1; donor 3, Conc. 234 μM) was 1.0000 Fold Change. For the same compound, the “Fold Change MCP1 Secretion Normalized Per Cell” value (MCP-1; donor 4, Valine 234 μM (plasma level, reference)) was 1.0000 fold change, the “MCP-1 secretion (summary in words)” value (MCP-1; [5]) was “no significant impact on MCP-1 secretion” and the “Col1a1 Fold Expression Relative to Control, Mean” value (Col1a1; first donor, 234 μM (baseline)) was 1.00 fold. For the same compound, the “Col1a1 Fold Expression Relative to Control, Mean” value (Col1a1; first donor, 23420 μM) was 1.00 fold, the “Col1a1 gene expression (summary in words)” value (Col1a1; [3]) was “did not significantly change Col1a1 gene expression in any donor” and the “Col1a1 Fold Expression Relative to Control, Mean” value (Col1a1; second donor (Table 27), 234 μM (baseline)) was 1.00 fold. For the same compound, the “Col1a1 Fold Expression Relative to Control, Mean” value (Col1a1; second donor (Table 27), 4684 μM) was 1.05 fold, the “Col1a1 Fold Expression Relative to Control, Mean” value (Col1a1; second donor (Table 27), 11710 μM) was 0.98 fold and the “Col1a1 Fold Expression Relative to Control, Mean” value (Col1a1; second donor (Table 27), 23420 μM) was 1.05 fold. For the same compound, the “Col1a1 Fold Expression Relative to Control, Mean” value (Col1a1; second donor (Table 29), 4684 μM) was 1.22 fold, the “Col1a1 Fold Expression Relative to Control, Mean” value (Col1a1; second donor (Table 29), 23420 μM) was 1.13 fold and the “Fold Change IL-6 Secretion Normalized Per Cell” value (IL-6 [2]; donor 1) was 1.0000 fold change. The “Fold Change IL-6 Secretion Normalized Per Cell” value (IL-6 [2]; donor 2) was 1.0000 fold change, the “IL-6 secretion (summary in words)” value (IL-6 [2]; [5]) was “no significant effect on IL-6 secretion” and the “MCP1 expression relative to Control, Mean” value (MCP1/CCL2; Donor 1, Conc. 234 μM) was −2.4E−15. For the same compound, the “MCP1 expression relative to Control, Mean” value (MCP1/CCL2; Donor 1, Conc. 4684 μM) was 23.6867, the “MCP1 expression relative to Control, Mean” value (MCP1/CCL2; Donor 1, Conc. 11710 μM) was 77.73 and the “MCP1 expression relative to Control, Mean” value (MCP1/CCL2; Donor 1, Conc. 23420 μM) was 14.17. For the same compound, the “MCP1 expression relative to Control, Mean” value (MCP1/CCL2; Donor 2, Conc. 234 μM) was −1.4E−14, the “MCP1 expression relative to Control, Mean” value (MCP1/CCL2; Donor 2, Conc. 4684 μM) was 10.79 and the “MCP1 expression relative to Control, Mean” value (MCP1/CCL2; Donor 2, Conc. 11710 μM) was 38.25. For the same compound, the “MCP1 expression relative to Control, Mean” value (MCP1/CCL2; Donor 2, Conc. 23420 μM) was −30.7921, the “MCP1/CCL2 secretion (summary in words)” value (MCP1/CCL2; primary human hepatocytes, two healthy donors) was “did not have an effect on MCP1/CCL2 secretion” and the “TNF-α Measurements Mean (baseline subtracted)” value (“TNF-α Measurements Mean” for short) (TNF-α; Donor 1, Conc. 4684 μM) was −40.37. The “TNF-α Measurements Mean” value (TNF-α; Donor 1, Conc. 11710 μM) was −41.77, the “TNF-α Measurements Mean” value (TNF-α; Donor 1, Conc. 23420 μM) was −14.98 and the “TNF-α Measurements Mean” value (TNF-α; [4]) was −4.7E−15. The “TNF-α Measurements Mean” value (TNF-α; Donor 2, Conc. 4684 μM) was −0.00221, the “TNF-α Measurements Mean” value (TNF-α; Donor 2, Conc. 11710 μM) was −0.835 and the “TNF-α Measurements Mean” value (TNF-α; Donor 2, Conc. 23420 μM) was −1.251. For the same compound, the “TNF-α Measurements Mean” value (TNF-α; Donor 3, Conc. 234 μM (baseline)) was −2.4E−15, the “TNF-α Measurements Mean” value (TNF-α; Donor 3, Conc. 4684 μM) was 0.126 and the “TNF-α Measurements Mean” value (TNF-α; Donor 3, Conc. 11710 μM) was −2.599. For the same compound, the “TNF-α Measurements Mean” value (TNF-α; Donor 3, Conc. 23420 μM) was 3.688.
